Reference: patent publication US20130245598A1, “PHOTOACTIVE VITAMIN NANOPARTICLES FOR THE TREATMENT OF CHRONIC WOUNDS” (priority 2010, published 2013)
In brackets after ≈: the same amount, converted by molar mass.

Columns and labels:
[1] = system: Human Skin
From the text: Toxicity of the formulations towards human skin cells is examined by previously published methods.

[2] = cited from the MSDS; cited from earlier work
[3] = cited from earlier work
[4] = system: E. coli; assay: microbe, parasite or virus in culture; details: Escherichia coli, light or radiation study, read-out: LD50 E. coli Irradiated
[5] = system: DNA; assay: DNA binding constant
[6] = system: plasmid DNA; assay: Photocleavage of plasmid DNA (ethidium bromide stained agarose gel); assay type: biochemical; details: irradiation with visible light (λ>395 nm); 120 μM plasmid DNA; 25 and 50 μM riboflavin; 30 min incubation, 30 min irradiation
From the text: From the left: Lane 1: DNA only, dark. Lane 2: DNA only, irradiated.

[7] = Singlet oxygen study using ADPA as singlet oxygen sensor; assay type: physicochemical; details: after 15 minutes of irradiation
[8] = Water solubility; assay type: physicochemical

Row | Compound | LD50 Human Skin Dark ([1]; dark) | LD50 Human Skin Irradiated ([1]; irradiated) | LD50 Acute Oral Toxicity [2] | water solubility [3] | LD50 [4] [mg/kg] | DNA binding constant Kb [5] | Photocleavage of plasmid DNA from Form I (supercoiled) to Form II (nicked) [6] | Production of singlet oxygen [7] | concentration showing precipitation in water [8] [μm]
1 | CC1=C(C/C=C(\C)CCC[C@H](C)CCC[C@H](C)CCCC(C)C)C(=O)c2ccccc2C1=O [Phylloquinone, phylloquinone] | No Effect | 18,779 mg/Kg | 25,000 mg/Kg | does not dissolve in water | – | – | – | – | –
2 | Cc1cc2nc3c(=O)[nH]c(=O)nc-3n(C[C@H](O)[C@H](O)[C@H](O)CO)c2cc1C [Riboflavin, 7,8-dimethyl-10-ribityl-isoalloxazine] | – | – | – | 100 µg/mL (≈ 266 µM) | 85 | > 10^4 M^−1 | can cleave DNA | capable of producing a large quantity of singlet oxygen | 250
